One assay addresses T1, GPI-PLC (T. brucei) (Trypanosoma brucei brucei, UniProt P09194).
T1 construct: purchased Oxford Glycosystems (Oxford, UK)
The experiment in a line: GPI-PLC (T. brucei) assay, human placental aP substrate, TX-114 partitioning. The class given is biochemical. On the procedure:
(§1) GPI-PLD (rat serum) was assayed according to “Hari et al. (1997) Biochim. Biophys. Acta 1355: 293-302” by incubation with 10 μl of human placental aP solution (100 U/ml in 10 mM Hepes/NaOH, pH 7.0, 150 mM NaCl) in 100 μl of 200 mM Tris/maleate (pH 7.0) and 1% Nonidet P-40 for 10 min at 37° C. and subsequent termination of the reaction by addition of 0.4 ml of ice-cold stop buffer (10 mM Hepes/NaOH, pH 7.0, 150 mM NaCl, 0.1 mM MgCl2 and 0.01 mM zinc acetate). GPI-PLC (T. brucei) was assayed as described in “Mensa-Wilmot et al. (1995) Methods Enzymol. 250: 641-655” by incubation with 5 μl of human placental aP solution (see above) in 50 μl of 50 mM Tris/HCl (pH 8.0), 0.25% Nonidet P-40 and 5 mM EDTA for 30 min at 37° C. and subsequent termination of the reaction by addition of 0.45 ml of stop buffer. PI-PLC (B. cereus) and adipocyte GPI-PLC (5-25 μg plasma membranes or hc/lcDIGs) were assayed by incubation with 10 μl of bovine erythrocyte acetylcholinesterase (AChE) solution (12 U/ml in 10 mM Tris/HCl, pH 7.4, 144 mM NaCl, 0.1% TX-100) in 100 μl of 20 mM Hepes/KOH (pH 7.8), 144 mM NaCl, 0.1% TX-100, 0.2 mM MgCl2 for 1 h at 25° C. and subsequent termination by adding 5 μl of glacial acetic acid and then 0.4 ml of 10 mM Tris/HCl (pH 7.4), 144 mM NaCl. Each reaction mixture was subjected to TX-114 partitioning (see below).
(§2) Pelleted hc/lcDIGs (10-50 μg protein) or (G)PI-PLC reaction mixtures (0.5 ml) were separated into amphiphilic and hydrophilic proteins using partitioning between TX-114-enriched and depleted phases according to “Bordier, C., (1981) J. Biol, Chem. […]” by suspending in 1 ml of ice-cold TX-114 (1%), 25 mM Tris/HCl (pH 7.4), 144 mM NaCl or mixing with 0.5 ml of ice-cold TX-114 (2%), respectively. After incubation for 1 h on ice, the mixture was layered onto a cushion of 0.4 ml of 0.25 M sucrose and 25 mM Tris/HCl (pH 7.4) on ice. Phase separation was induced by warming up to 37° C. and subsequent centrifugation (10,000×g, 1 min). After re-extraction of the lower TX-114-enriched phase, aliquots of the pooled upper TX-114-depleted phase were measured for 5′-Nuc, aP and AChE activity or precipitated (15 polyethylene glycol 4000) for SDS-PAGE analysis.
Table 1: GPI-PLC of hcDIGs from rat adipocytes, GPI-PLC from T. brucei and PI-PLC from B. cereus were incubated with solubilized and partially purified bovine erythrocyte AChE or human placental aP in the absence or presence of increasing concentrations (0.05 μM-1 mM) of the inhibitors indicated under appropriate conditions (see Materials and Methods). Cleavage rate was calculated from the amount of hydrophilic AChE and aP activity recovered with the TX-114-depleted phase upon TX-114 partitioning. Means+SD from at least 3 independent incubations with partitioning/enzyme assays in quadruplicate are given. n.a., not applicable.
Purified (G)PI-PLC/D from B. cereus, rat serum and T. brucei as well as total plasma membranes (PM) and hc/lcDIGs prepared from isolated rat adipocytes were incubated (10 min, 30° C.) with increasing concentrations of GPI-2350 and then assayed for amphiphilic-to-hydrophilic conversion of AChE and aP by TX-114 partitioning (see Materials and Methods). The lipolytic activity was calculated as % of the control reaction in the absence of GPI-2350 (set at 100%). Means+SD of at least 4 independent incubations with AChE and aP activity measurements in triplicate each are given.

A further assay relates to rat adipocyte GPI-PLC. The assay can be described thus: adipocyte GPI-PLC assay (plasma membranes or hc/lcDIGs, AChE substrate, TX-114 partitioning). The class given is biochemical. On the procedure:
as §1, §2
Table 1: GPI-PLC of hcDIGs from rat adipocytes, GPI-PLC from T. brucei and PI-PLC from B. cereus were incubated with solubilized and partially purified bovine erythrocyte AChE or human placental aP in the absence or presence of increasing concentrations (0.05 μM-1 mM) of the inhibitors indicated under appropriate conditions (see Materials and Methods). Cleavage rate was calculated from the amount of hydrophilic AChE and aP activity recovered with the TX-114-depleted phase upon TX-114 partitioning. […]

T1 sequence (P09194 whole entry): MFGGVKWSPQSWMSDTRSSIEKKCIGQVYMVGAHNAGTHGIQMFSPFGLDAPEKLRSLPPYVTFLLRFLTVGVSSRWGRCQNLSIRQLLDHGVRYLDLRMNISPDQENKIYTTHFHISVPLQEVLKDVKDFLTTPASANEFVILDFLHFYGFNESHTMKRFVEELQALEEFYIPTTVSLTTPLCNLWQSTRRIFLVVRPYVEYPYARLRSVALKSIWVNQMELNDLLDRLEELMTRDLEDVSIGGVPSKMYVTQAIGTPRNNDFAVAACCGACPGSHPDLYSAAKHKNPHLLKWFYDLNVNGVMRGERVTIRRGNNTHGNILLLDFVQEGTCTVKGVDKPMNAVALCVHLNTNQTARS

What is called IC50 is the point on the concentration scale where inhibition reaches its midpoint. A word on the inhibition: it is how much of the control response was suppressed. As for `CCCCCCCCCCCCP1(=O)O[C@@H]2[C@H](O)[C@@H](O)[C@H](O)[C@@H](O)[C@@H]2O1` (stereo partly drawn) [GPI-2350, myo-inositol-1,2-cyclo-dodecylphosphonic acid], the IC50 on GPI-PLC (T. brucei) (IC50, Table 1, inhibitor 0.05 μM-1 mM) was 2 to 5 µM; at GPI-PLC (T. brucei) (apparent IC50, FIG. 2), 2 µM; in the assay with rat adipocyte GPI-PLC (GPI-PLC of hcDIGs from rat adipocytes, inhibitor 0.05 μM-1 mM) it was 0.2 to 0.5 µM. For the same molecule, the inhibition at 1000 µM at GPI-PLC (T. brucei) (read-out: inhibition % at 1 mM) came out at 85%. Further, the “reversal of half-maximal inhibition” value on GPI-PLC (T. brucei) (upon 10-fold dilution with excess of fresh GPI-protein substrate) is on record as “completely reversed”. Further, the “lipolytic cleavage of AChE after washout” value in the assay on rat adipocyte GPI-PLC (hcDIGs treated with 50 μM, reisolated, extensively washed, incubated without inhibitor) was “only low lipolytic cleavage”.

The values are drawn from patent US8017350B2, “Glimepiride- and insulin-induced glycosylphosphatidylinositol-specific phospholipase C regulation” (Sanofi-Aventis Deutschland GmbH, priority 2004, dated 2011).
